According to ChEMBL document CHEMBL1133063, “Nonbenzamidine compounds as selective factor Xa inhibitors” (Bioorg Med Chem Lett, 2000):

How the values were obtained:
Coagulation factor X = Coagulation factor X (Homo sapiens, UniProt P00742); experiment: Compound was evaluated for the inhibitory activity against Coagulation factor X
Plasminogen = Plasminogen (Homo sapiens, UniProt P00747); experiment: Compound was evaluated for the inhibitory activity against plasmin
Prothrombin = Prothrombin (Homo sapiens, UniProt P00734); experiment: Compound was evaluated for the inhibitory activity against thrombin
Serine protease 1 [1] = target: T1, Serine protease 1 (Homo sapiens, UniProt P07477); experiment: Compound was evaluated for the inhibitory activity against trypsin.
T1 sequence (P07477 whole entry): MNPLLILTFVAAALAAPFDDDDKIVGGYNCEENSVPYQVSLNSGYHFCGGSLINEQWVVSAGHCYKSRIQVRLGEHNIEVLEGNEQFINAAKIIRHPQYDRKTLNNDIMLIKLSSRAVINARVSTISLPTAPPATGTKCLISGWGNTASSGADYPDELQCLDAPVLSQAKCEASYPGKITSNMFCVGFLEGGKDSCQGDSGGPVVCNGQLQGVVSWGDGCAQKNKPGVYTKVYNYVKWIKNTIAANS

[2] = target: T2, Tissue-type plasminogen activator (Homo sapiens, UniProt P00750); experiment: Compound was evaluated for the inhibitory activity against t-PA.
T2 sequence (P00750 whole entry): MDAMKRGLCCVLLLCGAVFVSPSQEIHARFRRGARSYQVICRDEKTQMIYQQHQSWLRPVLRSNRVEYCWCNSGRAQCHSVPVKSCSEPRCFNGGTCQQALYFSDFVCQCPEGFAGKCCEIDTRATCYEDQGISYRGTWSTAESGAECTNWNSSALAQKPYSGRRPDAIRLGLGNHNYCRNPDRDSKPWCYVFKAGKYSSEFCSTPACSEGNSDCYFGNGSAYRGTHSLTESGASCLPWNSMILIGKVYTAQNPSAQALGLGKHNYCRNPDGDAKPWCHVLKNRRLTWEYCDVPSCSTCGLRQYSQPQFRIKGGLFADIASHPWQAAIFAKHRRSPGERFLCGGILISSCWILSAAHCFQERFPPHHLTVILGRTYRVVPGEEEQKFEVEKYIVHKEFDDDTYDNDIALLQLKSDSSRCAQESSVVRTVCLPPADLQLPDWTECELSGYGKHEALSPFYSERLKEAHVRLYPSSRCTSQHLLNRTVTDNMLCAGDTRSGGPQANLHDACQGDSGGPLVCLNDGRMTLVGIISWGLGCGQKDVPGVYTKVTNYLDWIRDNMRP

[3] = target: Vitamin K-dependent protein C (Homo sapiens, UniProt P04070); experiment: Compound was evaluated for the inhibitory activity against Activated protein C
Chain of Vitamin K-dependent protein C (P04070 43-197 limits assumed): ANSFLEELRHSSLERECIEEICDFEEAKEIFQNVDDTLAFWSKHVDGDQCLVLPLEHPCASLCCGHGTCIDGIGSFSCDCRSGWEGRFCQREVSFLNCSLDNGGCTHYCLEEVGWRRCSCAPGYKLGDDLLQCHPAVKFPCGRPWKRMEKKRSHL
Chain of Vitamin K-dependent protein C (P04070 212-461 limits assumed): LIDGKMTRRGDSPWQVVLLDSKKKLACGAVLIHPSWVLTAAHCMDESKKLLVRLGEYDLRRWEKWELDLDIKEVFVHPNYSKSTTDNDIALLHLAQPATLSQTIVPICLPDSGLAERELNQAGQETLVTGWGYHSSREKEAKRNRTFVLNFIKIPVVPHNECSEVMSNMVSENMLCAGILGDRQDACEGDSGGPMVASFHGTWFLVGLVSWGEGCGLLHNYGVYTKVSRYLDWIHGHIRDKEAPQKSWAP

[4] = target: T2, Tissue-type plasminogen activator; experiment: Compound was evaluated for the inhibitory activity against t-PA
Serine protease 1 [5] = target: T1, Serine protease 1; experiment: Compound was evaluated for the inhibitory activity against trypsin

Chain of Coagulation factor X (P00742 41-179 limits assumed): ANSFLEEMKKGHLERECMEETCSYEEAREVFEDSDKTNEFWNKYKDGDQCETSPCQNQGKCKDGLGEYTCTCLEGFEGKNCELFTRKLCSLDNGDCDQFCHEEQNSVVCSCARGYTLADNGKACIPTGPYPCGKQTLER
Chain of Coagulation factor X (P00742 235-488 limits assumed): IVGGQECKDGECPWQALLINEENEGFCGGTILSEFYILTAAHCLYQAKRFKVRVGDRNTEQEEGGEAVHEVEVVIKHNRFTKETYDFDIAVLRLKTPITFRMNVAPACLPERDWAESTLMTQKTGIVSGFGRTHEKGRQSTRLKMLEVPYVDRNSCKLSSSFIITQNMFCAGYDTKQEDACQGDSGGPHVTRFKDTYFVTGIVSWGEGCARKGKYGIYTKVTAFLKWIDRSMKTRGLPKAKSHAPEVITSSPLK
Chain of Plasminogen (P00747 97-580 limits assumed): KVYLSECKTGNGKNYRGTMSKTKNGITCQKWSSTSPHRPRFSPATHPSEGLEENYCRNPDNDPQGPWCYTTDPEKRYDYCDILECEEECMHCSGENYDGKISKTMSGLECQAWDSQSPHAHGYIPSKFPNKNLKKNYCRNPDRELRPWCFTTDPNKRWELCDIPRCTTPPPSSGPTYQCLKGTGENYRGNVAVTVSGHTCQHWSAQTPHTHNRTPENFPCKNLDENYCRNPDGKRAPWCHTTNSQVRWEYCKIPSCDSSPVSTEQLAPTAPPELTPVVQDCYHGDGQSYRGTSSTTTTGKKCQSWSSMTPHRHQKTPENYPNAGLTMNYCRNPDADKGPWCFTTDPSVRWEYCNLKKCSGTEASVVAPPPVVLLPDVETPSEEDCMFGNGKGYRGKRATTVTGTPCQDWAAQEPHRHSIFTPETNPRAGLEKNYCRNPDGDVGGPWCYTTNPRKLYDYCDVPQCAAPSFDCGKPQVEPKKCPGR
Chain of Plasminogen (P00747 581-810 limits assumed): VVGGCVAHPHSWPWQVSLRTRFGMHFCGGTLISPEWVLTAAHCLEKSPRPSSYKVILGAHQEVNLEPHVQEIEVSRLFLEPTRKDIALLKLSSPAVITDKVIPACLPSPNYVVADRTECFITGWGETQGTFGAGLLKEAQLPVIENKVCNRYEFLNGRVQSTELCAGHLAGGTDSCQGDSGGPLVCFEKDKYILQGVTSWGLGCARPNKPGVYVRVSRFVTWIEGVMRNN

Structure (SMILES) | Ki (Coagulation factor X) | further results
O=C(CN1CCN(S(=O)(=O)c2cc3ccc(Cl)cc3s2)CC1=O)NC1CCNCC1 | > 1200 nM | –
O=C(CN1CCN(S(=O)(=O)c2cc3ccc(Cl)cc3s2)CC1=O)Nc1cccnc1 | > 1200 nM | –
COC(=O)[C@H](Cc1c[nH]cn1)NC(=O)CN1CCN(S(=O)(=O)c2cc3ccc(Cl)cc3s2)CC1=O | > 1200 nM | –
O=C(CN1CCN(S(=O)(=O)c2cc3ccc(Cl)cc3s2)CC1=O)Nc1ccccc1 | > 1200 nM | –
O=C(CN1CCN(S(=O)(=O)c2cc3ccc(Cl)cc3s2)CC1=O)NCCn1ccnc1 | > 1200 nM | –
COC(=O)[C@@H](Cc1cnc[nH]1)NC(=O)CN1CCN(S(=O)(=O)c2cc3ccc(Cl)cc3s2)CC1=O | > 1200 nM | –
O=C(CN1CCN(S(=O)(=O)c2cc3ccc(Cl)cc3s2)CC1=O)NCc1cccnc1 | > 1200 nM | –
O=C(CN1CCN(S(=O)(=O)c2cc3ccc(Cl)cc3s2)CC1=O)NCCCn1ccnc1 | > 1200 nM | –
Cn1cccc1CCNC(=O)CN1CCN(S(=O)(=O)c2cc3ccc(Cl)cc3s2)CC1=O | > 1200 nM | –
CN(C(=O)CN1CCN(S(=O)(=O)c2cc3ccc(Cl)cc3s2)CC1=O)c1ccncc1 | > 1200 nM | –

Compounds with a lower Ki (Coagulation factor X), results first:

Ki (Coagulation factor X) | Structure (SMILES) | further results
620 nM | Nc1nc(CCNC(=O)CN2CCN(S(=O)(=O)c3cc4ccc(Cl)cc4s3)CC2=O)cs1 | –
620 nM | O=C(CN1CCN(S(=O)(=O)c2cc3ccc(Cl)cc3s2)CC1=O)NCCc1c[nH]c(S)n1 | –
430 nM | Cn1cnc(CCNC(=O)CN2CCN(S(=O)(=O)c3cc4ccc(Cl)cc4s3)CC2=O)c1 | –
340 nM | Cc1[nH]cnc1CCNC(=O)CN1CCN(S(=O)(=O)c2cc3ccc(Cl)cc3s2)CC1=O | –
270 nM | Cc1ncsc1CCNC(=O)CN1CCN(S(=O)(=O)c2cc3ccc(Cl)cc3s2)CC1=O | –
250 nM | O=C(CN1CCN(S(=O)(=O)c2cc3ccc(Cl)cc3s2)CC1=O)NCCc1cccnc1 | –
170 nM | O=C(CN1CCN(S(=O)(=O)c2cc3ccc(Cl)cc3s2)CC1=O)Nc1ccncc1 | –
160 nM | O=C(CN1CCN(S(=O)(=O)c2cc3ccc(Cl)cc3s2)CC1=O)NCCc1cscn1 | –
140 nM | O=C(CN1CCN(S(=O)(=O)c2cc3ccc(Cl)cc3s2)CC1=O)NCCc1ccccn1 | –
140 nM | Nc1cc(CCNC(=O)CN2CCN(S(=O)(=O)c3cc4ccc(Cl)cc4s3)CC2=O)ccn1 | –
97 nM | O=C(CN1CCN(S(=O)(=O)c2cc3ccc(Cl)cc3s2)CC1=O)Nc1ccncn1 | –
59 nM | O=C(CN1CCN(S(=O)(=O)c2cc3ccc(Cl)cc3s2)CC1=O)NCCc1ccncc1 | –
21 nM | O=C(CN1CCN(S(=O)(=O)c2cc3ccc(Cl)cc3s2)CC1=O)NCCc1cnc[nH]1 | Ki (Plasminogen): > 7300 nM; Ki [4]: > 8700 nM; Ki (Prothrombin): > 4000 nM; Ki (Serine protease 1 [5]): > 2900 nM; Ki [3]: > 18000 nM
12 nM | Cn1cncc1CCNC(=O)CN1CCN(S(=O)(=O)c2cc3ccc(Cl)cc3s2)CC1=O | Ki (Plasminogen): > 7300 nM; Ki (Prothrombin): > 4000 nM; Ki (Serine protease 1 [1]): > 2900 nM; Ki [2]: > 8700 nM; Ki [3]: > 18000 nM
